Active and inactive are the calls of the source.
Key:
[1] = Fluorescence-based cell-based high throughput dose response assay for inhibitors of the interaction of nucleotide-binding oligomerization domain containing 2 (NOD2) and the receptor-interacting serine-threonine kinase 2 (RIPK2).; format: functional; conditions: Homo sapiens
[2] = Luminescence Cell-Based Dose Confirmation HTS to Identify Inhibitors of Platelet Dense Granule Release. [Related pubchem assays: 1663 (Primary HTS), 1678 (Summary of Project)]; format: functional
[3] = biological target: Beta Lactamase (Pseudomonas aeruginosa, UniProt Q932Y6); assay: beta-lactamase reporter inhibitor potency, dose response, artefact control for NOD2-RIPK2 interaction inhibitor project, BLA reporter cells, FRET fluorescence (AID 651552); format: functional, cell-based
[4] = biological target: Beta-galactosidase (Escherichia coli, UniProt Q8VNN2); assay: beta-galactosidase enzyme inhibitors and activators, dose response, artefact control for CCR6 antagonist project, biochemical, E. coli enzyme, set 3 (AID 504712); format: functional
[5] = biological target: Luciferin 4-monooxygenase (Photinus pyralis, UniProt P08659); assay: firefly luciferase enzyme inhibitors, dose response, biochemical, luminescence (AID 1891)
[6] = biological target: T1, Voltage-gated N-type calcium channel alpha-1B subunit/Amyloid beta A4 precursor protein-binding family A member 1 (Homo sapiens, UniProt Q00975+Q02410); format: protein assay
[7] = biological target: T1, Voltage-gated N-type calcium channel alpha-1B subunit/Amyloid beta A4 precursor protein-binding family A member 1; format: protein assay; remark: listed apart in the source
[8] = biological target: T2, Kappa-type opioid receptor (Homo sapiens, UniProt P41145); assay: SAR analysis of small molecule antagonists of the kappa opioid receptor via a luminescent beta-arrestin assay - Set 3. [Related pubchem assays (depositor defined):AID1777, AID1778, AID1785, AID1786, AID1966, AID2133, AID2136, AID2285, AID2495]; format: functional
[9] = biological target: T2, Kappa-type opioid receptor; assay: SAR analysis of Antagonists of the Kappa Opioid Receptor (KOR) using an Image-Based Assay - Set 3. [Related pubchem assays (depositor defined):AID1777, AID1785]; format: functional
[10] = biological target: Mu-type opioid receptor (Homo sapiens, UniProt P35372); assay: SAR Analysis of Antagonists of the MOR Receptor using an Image-Based Assay - Set 3. [Related pubchem assays (depositor defined):AID1777, AID1785, AID1786, AID1966, AID2133, AID2136, AID2284, AID2285, AID2420]; format: functional
[11] = biological target: T2, Kappa-type opioid receptor; assay: SAR analysis of Antagonists of the Kappa Opioid Receptor (KOR) using an Image-Based Assay - Set 4. [Related pubchem assays (depositor defined):AID1777, AID1785]; format: functional
[12] = biological target: Delta-type opioid receptor (Homo sapiens, UniProt P41143); assay: SAR Analysis of Antagonists of the DOR Receptor using an Image-Based Assay - Set 3. [Related pubchem assays (depositor defined):AID1777, AID1785]; format: functional;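 also: U2OS cells expressing DOR1 and beta-arrestin GFP stimulated with 100 nM SNC80; imaging of GFP-tagged beta-arrestin moving into spots after receptor activation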
[13] = biological target: T3, Coagulation factor XII (Homo sapiens, UniProt P00748); assay: FXIIa inhibitor potency, concentration-response, biochemical (AID 716); format: functional
T3 sequence (P00748 whole entry): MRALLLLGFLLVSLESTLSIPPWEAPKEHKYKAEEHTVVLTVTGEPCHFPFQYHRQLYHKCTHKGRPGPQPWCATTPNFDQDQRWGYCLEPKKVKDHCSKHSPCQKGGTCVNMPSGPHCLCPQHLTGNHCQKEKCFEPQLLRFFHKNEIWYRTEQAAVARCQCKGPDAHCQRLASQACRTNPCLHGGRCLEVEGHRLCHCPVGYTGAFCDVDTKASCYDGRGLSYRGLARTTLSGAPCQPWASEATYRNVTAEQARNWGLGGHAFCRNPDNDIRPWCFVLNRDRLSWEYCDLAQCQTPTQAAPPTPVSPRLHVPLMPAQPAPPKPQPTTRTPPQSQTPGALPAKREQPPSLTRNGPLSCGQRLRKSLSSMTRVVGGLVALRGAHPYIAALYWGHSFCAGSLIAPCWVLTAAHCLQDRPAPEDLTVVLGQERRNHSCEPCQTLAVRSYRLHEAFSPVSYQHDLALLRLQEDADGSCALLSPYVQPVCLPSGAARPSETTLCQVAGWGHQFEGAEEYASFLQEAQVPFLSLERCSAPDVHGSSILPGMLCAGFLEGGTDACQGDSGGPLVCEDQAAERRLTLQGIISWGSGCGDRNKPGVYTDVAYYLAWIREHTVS

[14] = biological target: T4, Ubiquitin-conjugating enzyme E2 N (Homo sapiens, UniProt P61088); format: functional;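 also: Dose-response confirmation in a TR-FRET assay detecting UBC13-driven polyubiquitin chain formation, inhibition measured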
T4 sequence (P61088 whole entry): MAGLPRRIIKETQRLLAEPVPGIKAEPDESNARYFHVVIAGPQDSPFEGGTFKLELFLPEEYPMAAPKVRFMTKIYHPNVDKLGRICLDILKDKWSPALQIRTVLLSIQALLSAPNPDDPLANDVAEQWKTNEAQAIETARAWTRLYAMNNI

[15] = biological target: T5, DNA repair protein RAD52 homolog (Homo sapiens, UniProt P43351); format: functional, biochemical
T5 sequence (P43351 whole entry): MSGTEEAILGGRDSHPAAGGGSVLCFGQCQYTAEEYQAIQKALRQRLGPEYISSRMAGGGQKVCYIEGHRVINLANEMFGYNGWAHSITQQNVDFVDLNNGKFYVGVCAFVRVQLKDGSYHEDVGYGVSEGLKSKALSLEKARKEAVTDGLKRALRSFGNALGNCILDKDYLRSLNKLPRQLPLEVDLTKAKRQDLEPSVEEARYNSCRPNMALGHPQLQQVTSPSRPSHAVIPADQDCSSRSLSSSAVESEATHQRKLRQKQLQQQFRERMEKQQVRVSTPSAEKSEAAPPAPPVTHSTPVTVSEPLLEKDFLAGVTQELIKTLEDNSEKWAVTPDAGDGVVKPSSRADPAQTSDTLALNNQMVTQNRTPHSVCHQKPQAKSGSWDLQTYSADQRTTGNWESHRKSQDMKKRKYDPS

[16] = cells; format: functional, cell-based
[17] = cells; format: functional, cell-based; remark: listed apart in the source
[18] = THP-1 cell cytotoxicity, dose response, cytotoxicity control for non-replicating M. tuberculosis project (AID 489025); format: functional
[19] = cells; format: functional
[20] = biological target: T6, Trace amine-associated receptor 1 (Homo sapiens, UniProt Q96RJ0); assay: Fluorescence-based cell-based high throughput dose response assay to identify agonists of the human trace amine associated receptor 1 (TAAR1).; format: functional
T6 sequence (Q96RJ0 whole entry): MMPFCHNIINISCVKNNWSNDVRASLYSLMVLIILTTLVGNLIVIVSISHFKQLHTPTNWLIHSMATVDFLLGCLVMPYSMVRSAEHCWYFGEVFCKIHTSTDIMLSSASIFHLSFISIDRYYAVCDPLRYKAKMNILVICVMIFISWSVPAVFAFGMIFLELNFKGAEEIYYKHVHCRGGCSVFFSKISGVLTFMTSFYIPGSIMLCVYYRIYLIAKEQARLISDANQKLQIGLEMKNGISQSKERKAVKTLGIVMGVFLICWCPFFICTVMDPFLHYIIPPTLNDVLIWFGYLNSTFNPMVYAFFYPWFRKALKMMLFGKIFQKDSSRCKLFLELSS

[21] = biological target: T6, Trace amine-associated receptor 1; assay: Counterscreen for agonists of the human trace amine associated receptor 1 (hTAAR1): Fluorescence-based cell-based high throughput dose response assay to identify hTAAR1 agonist that also desensitize TAAR1 receptor response.; format: functional
[22] = Vero E6 cell cytotoxicity, dose response, cytotoxicity control for non-replicating M. tuberculosis project, secondary assay (AID 492998); format: functional, VeroE6; conditions: Vero C1008
[23] = biological target: Nonstructural protein 1 (Influenza A virus, UniProt Q194T2); format: functional, Influenza A virus (A/California/07/2009(H1N1))
[24] = biological target: DNA damage-inducible transcript 3 protein (Mus musculus, UniProt P35639); format: functional, Cricetulus griseus
[25] = biological target: Hexokinase (Trypanosoma brucei, UniProt Q38C41); assay: Confirmation assay for inhibitors of Trypanosoma brucei hexokinase 1-Analogue-first series. [Related pubchem assays (depositor defined):AID1430, AID1632, AID2516, AID2560, AID2579, AID2600, AID449725, AID492951]; format: functional
Chain of Hexokinase (Q38C41 whole entry): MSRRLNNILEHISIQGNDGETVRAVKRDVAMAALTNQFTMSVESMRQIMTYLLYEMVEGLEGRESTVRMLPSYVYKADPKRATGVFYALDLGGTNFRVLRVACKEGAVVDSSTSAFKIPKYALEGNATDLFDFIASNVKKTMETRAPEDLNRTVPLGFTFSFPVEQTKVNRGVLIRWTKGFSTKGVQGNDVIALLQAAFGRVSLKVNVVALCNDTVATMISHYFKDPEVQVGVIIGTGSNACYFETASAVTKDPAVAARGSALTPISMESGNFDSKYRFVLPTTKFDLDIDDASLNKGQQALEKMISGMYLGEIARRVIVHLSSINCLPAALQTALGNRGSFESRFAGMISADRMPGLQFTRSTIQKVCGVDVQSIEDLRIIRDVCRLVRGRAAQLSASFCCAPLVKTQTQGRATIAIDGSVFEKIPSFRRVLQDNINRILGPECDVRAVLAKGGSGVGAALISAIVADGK

T2 sequence (P41145 whole entry): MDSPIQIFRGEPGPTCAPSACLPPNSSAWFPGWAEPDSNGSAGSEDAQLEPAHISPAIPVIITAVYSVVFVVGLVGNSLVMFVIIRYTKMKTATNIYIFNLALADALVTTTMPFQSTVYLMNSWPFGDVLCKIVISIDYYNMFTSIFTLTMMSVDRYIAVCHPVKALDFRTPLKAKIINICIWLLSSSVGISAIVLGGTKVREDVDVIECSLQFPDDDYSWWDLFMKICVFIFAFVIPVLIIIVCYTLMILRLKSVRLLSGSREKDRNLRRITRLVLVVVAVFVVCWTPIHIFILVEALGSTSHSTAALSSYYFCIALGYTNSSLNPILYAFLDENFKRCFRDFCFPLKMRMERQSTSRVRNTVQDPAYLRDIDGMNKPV
T1 sequence (Q00975 whole entry): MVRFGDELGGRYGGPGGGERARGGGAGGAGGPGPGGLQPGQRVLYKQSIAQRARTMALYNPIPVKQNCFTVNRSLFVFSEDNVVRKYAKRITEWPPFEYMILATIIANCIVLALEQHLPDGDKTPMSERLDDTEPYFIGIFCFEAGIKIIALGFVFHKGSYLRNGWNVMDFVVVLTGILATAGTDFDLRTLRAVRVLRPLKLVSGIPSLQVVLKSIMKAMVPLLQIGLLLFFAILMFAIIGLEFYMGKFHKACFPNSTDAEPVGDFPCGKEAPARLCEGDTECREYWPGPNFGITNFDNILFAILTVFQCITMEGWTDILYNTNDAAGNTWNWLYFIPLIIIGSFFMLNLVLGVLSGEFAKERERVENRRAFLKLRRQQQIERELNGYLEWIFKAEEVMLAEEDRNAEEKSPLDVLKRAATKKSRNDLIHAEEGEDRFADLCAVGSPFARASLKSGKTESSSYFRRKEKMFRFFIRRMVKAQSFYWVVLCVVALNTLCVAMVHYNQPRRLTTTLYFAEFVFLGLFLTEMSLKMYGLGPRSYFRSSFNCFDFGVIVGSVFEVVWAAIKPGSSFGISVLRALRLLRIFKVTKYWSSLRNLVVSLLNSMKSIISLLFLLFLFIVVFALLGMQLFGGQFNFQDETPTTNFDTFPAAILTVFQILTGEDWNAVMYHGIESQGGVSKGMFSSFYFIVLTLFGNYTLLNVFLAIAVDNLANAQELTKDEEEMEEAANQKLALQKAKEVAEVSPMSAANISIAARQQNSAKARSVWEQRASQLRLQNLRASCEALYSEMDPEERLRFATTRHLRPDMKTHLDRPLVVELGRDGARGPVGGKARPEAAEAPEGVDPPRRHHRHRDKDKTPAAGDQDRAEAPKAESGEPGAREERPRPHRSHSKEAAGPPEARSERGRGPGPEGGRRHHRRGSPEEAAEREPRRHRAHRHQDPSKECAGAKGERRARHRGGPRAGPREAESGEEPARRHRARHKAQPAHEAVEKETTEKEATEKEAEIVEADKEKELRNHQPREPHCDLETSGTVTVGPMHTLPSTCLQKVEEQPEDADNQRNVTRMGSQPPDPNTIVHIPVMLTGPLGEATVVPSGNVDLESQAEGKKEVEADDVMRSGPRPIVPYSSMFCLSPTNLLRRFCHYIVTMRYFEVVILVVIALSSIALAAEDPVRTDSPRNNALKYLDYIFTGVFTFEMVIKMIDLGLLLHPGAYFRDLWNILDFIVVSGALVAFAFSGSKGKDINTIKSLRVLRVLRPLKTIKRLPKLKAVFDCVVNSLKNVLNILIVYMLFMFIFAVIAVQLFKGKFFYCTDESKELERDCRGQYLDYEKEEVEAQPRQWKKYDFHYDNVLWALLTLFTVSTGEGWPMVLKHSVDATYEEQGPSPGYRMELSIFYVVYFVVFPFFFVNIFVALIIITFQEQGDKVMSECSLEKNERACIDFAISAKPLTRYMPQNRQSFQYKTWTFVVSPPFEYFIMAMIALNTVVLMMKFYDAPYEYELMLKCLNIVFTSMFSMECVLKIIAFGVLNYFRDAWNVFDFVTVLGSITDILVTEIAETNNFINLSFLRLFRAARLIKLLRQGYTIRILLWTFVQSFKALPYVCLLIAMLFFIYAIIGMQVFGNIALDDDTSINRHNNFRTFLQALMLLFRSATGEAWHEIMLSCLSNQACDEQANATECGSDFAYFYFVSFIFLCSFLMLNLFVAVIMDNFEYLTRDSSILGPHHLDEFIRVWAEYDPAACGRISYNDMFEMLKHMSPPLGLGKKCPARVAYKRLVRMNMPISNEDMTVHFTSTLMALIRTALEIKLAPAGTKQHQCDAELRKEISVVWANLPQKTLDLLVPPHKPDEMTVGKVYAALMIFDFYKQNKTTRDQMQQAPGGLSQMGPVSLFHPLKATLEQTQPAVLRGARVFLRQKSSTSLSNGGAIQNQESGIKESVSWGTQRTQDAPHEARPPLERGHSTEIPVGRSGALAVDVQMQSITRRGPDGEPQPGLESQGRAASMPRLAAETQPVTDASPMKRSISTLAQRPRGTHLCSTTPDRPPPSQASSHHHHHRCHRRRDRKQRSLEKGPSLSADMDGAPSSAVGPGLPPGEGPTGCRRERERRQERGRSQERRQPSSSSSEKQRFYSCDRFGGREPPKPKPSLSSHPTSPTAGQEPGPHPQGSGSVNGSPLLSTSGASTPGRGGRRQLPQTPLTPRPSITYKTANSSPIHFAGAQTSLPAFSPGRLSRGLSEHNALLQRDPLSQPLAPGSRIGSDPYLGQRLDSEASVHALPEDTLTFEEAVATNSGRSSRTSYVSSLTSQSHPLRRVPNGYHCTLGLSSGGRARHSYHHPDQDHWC
T1 sequence (Q02410 whole entry): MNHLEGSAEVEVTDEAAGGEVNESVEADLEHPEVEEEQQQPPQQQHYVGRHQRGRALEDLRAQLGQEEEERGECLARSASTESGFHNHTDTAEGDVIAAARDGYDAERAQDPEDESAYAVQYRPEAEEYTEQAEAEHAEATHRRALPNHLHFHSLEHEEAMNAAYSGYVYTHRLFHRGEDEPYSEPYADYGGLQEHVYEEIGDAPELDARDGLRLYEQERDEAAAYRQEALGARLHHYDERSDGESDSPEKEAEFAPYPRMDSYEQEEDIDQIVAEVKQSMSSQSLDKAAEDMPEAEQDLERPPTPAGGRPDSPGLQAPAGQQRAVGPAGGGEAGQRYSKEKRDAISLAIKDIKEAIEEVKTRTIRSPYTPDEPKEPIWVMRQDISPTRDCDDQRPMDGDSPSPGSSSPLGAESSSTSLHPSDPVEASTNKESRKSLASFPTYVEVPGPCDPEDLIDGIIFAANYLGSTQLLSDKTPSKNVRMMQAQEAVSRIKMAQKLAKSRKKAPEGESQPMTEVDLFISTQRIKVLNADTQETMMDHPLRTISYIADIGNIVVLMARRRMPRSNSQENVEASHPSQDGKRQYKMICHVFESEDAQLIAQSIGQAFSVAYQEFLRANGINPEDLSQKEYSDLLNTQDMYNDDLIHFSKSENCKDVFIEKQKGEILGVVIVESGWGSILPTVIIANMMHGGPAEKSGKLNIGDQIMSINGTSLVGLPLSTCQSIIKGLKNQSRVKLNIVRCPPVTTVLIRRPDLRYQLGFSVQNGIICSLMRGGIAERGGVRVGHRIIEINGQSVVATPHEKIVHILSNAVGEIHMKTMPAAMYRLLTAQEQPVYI
Chain of Delta-type opioid receptor (P41143 whole entry): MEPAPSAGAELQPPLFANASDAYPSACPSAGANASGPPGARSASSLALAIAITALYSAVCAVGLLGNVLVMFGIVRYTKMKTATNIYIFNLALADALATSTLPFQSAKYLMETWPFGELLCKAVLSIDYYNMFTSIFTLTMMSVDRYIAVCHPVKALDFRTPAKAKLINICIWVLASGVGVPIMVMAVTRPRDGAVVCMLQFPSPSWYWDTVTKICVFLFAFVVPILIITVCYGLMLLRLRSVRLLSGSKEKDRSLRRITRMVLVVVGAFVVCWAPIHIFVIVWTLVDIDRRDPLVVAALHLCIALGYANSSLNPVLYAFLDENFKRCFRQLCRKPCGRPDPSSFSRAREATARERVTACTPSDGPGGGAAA
Chain of Mu-type opioid receptor (P35372 whole entry): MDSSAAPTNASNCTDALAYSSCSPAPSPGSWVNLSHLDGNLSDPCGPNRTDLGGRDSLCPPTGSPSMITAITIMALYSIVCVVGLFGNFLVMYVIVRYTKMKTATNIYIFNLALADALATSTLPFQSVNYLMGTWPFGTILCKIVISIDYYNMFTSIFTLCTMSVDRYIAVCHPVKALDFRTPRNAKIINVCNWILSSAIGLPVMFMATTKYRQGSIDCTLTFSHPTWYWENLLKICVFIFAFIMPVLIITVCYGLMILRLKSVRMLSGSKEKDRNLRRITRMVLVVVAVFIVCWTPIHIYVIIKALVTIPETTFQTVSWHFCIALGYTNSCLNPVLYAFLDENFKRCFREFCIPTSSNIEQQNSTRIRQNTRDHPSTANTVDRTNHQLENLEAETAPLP
Chain of DNA damage-inducible transcript 3 protein (P35639 whole entry): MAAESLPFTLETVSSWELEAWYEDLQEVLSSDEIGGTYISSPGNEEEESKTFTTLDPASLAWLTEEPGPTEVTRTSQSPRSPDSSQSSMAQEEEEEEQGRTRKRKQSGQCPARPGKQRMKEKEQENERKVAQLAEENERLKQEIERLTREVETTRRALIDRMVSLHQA

## O=C1C=C(c2ccccc2)C(=O)N1Nc1ccccc1
[1]
  IC50: 1.68 µM (active)
[2]
  EC50: 8.82 µM (active)
[3]
  IC50: 18.7 µM (inactive)
[4]
  IC50: > 66.6 µM (inactive)
[5]
  EC50: > 112 µM (not active)
[6]
  IC50: 20.4 µM (active)
[7]
  IC50: 45.8 µM (active)

## Cc1ccc(N2CCN(CCCNC(=O)Cn3c(=O)c4cccn4c4cccnc43)CC2)cc1
[8]
  IC50: 3.68 µM (active)
[9]
  IC50: 0.776 µM (active)
[10]
  IC50: 18.8 µM (inactive)
[11]
  IC50: 1.01 µM (active)
[12]
  IC50: > 32 µM (inactive)

## Cc1ccc(NC(=O)C[S+]([O-])CC(=O)NCC2CCCO2)cc1 (stereo not given)
[13]
  IC50: > 50 µM (inactive)

## N=C(N)N/N=C/c1cn(-c2ccccc2)nc1-c1cccs1.O=[N+]([O-])O
[14]
  IC50: > 20 µM (inactive)
[15]
  AC50: 3.85 µM (active)
[16]
  EC50: 11.4 µM (inactive)
[17]
  IC50: 12.2 µM (inactive)
[18]
  CC50: 12.3 µM (active)
[19]
  IC50: 11 µM (active)
[20]
  EC50: 6.9 µM (active)
[21]
  IC50: 17.7 µM (inactive)
[22]
  CC50: 11 µM (active)
[23]
  IC50: > 100 µM (active)
[24]
  Absolute IC50 (CHOP): 10 µM

## COc1ccc(C(=O)NC(CC(=O)O)c2cccc(Cl)c2)cc1 (stereo not given)
[25]
  IC50: > 25 µM (inactive)

Reference: ChEMBL document CHEMBL1201862, “PubChem BioAssay data set” (2004)
